Molecules are shown by their SMILES. “And” between values parts separate entries of the source, which are not always exact repeats. Equal entries are not always repeated.

The test system of data set [1] is MCF-7 cells. The data set is described as follows: MTT cytotoxicity assay, MCF-7. It counts as cell-based. The settings on record: Homo sapiens, MCF7, 48 h, read-out: Cytotoxic IC50 MCF-7. A general note: Formazan colour is commonly taken as a measure of viable cells.
Method: (§3) Using RPMI-1640 medium L-Glutamine (Lonza Verviers SPRL, Belgium, cat#12-604F), we successfully cultured liver (HepG2), breast (MCF-7), and lung (A549) cells bought from the National Research Institute, Egypt. Each culture was supplemented with 10% foetal bovine serum (FBS, Sigma-Aldrich, MO, USA) and 1% penicillin-streptomycin (Lonza, Belgium). Using a 96-well plate, cells were seeded at a density of 5,000 cells per well in triplicate. The chemicals were added to the cells on day 2 at doses of (0.01, 0.1, 1, 10, and 100 M). To determine cell viability, MTT solution was used after 48 h (Promega, USA)[84]. Using GraphPad Prism 7, as was previously reported in, we computed the survival rate in comparison to the control and obtained the IC50 values[85].
In data set [2] the test system is HepG2 cells. Put plainly: MTT cytotoxicity assay, HepG2. Conditions: Homo sapiens, HepG2, 48 h, read-out: Cytotoxic IC50 HepG2. It counts as cell-based.
Method: as §3
The subject of data set [3] is A549 cells. Put plainly: MTT cytotoxicity assay, A549. It counts as cell-based. Conditions: Homo sapiens, A549, 48 h, read-out: Cytotoxic IC50 A549.
Method: as §3
Data set [4] deals with P53. The data set is described as follows: RT-PCR gene expression, P53. Conditions: HepG2 cells, IC50, 48 h; normalized to β-actin; untreated = 1. It counts as cell-based. The protocol: (§1) The gene expression of P53, Bax, Caspasses-3,8,9 as proapoptotic genes and Bcl-2 as an anti-apoptotic gene were evaluated to investigate the apoptotic pathway. […] Afterwards, the standard operating procedure called for an RT-PCR reaction to be performed. The Ct values were then used to determine the relative expression of each gene in each sample, normalised to the β-actin as house-keeping gene[90–92].

The test system of data set [5] is Casp-9. The data set is described as follows: RT-PCR gene expression, Casp-9. It counts as cell-based. The settings on record: HepG2 cells, IC50, 48 h; normalized to β-actin; untreated = 1. As to the method: as §1
In data set [6] the test system is Casp-3. Put plainly: RT-PCR gene expression, Casp-3. It counts as cell-based. The settings on record: HepG2 cells, IC50, 48 h; normalized to β-actin; untreated = 1. As to the method:
as §1

For data set [7], the system named is HepG2 cells. Put plainly: DNA content flow cytometry cell cycle analysis. The settings on record: IC50 concentration, 48 h, control 39.15%. It counts as cell-based.
The subject of data set [8] is Bax. Put plainly: RT-PCR gene expression, Bax. It counts as cell-based. Conditions: HepG2 cells, IC50, 48 h; normalized to β-actin; untreated = 1. The protocol: as §1
The test system of data set [9] is Calfthymus DNA. Put plainly: DNA intercalation assay (DNA/methyl green). It counts as binding, calf. The settings on record: average of three independent replicates, five concentrations. As to the method:
(§2) Topoisomerase II (TopoGEN, Inc., Columbus) and DNA intercalator (methyl green (20 mg) and Calfthymus DNA (10 mg) were tested for their capacity to block the enzyme’s activity. Following equation was used to determine compound inhibition percentages: 100−[A control/A treated−Control)], IC50 was determined using GraphPad prism7 using inhibition curves at five different concentrations of each compound[86].

For data set [10], the system named is Casp-8. Put plainly: RT-PCR gene expression, Casp-8. It counts as cell-based. The settings on record: HepG2 cells, IC50, 48 h; normalized to β-actin; untreated = 1. The protocol:
as §1

The target in data set [11] is T1, Topoisomerase II (Homo sapiens, UniProt P11388).
T1 construct: purchased TopoGEN, Inc., Columbus
T1 sequence (P11388 whole entry): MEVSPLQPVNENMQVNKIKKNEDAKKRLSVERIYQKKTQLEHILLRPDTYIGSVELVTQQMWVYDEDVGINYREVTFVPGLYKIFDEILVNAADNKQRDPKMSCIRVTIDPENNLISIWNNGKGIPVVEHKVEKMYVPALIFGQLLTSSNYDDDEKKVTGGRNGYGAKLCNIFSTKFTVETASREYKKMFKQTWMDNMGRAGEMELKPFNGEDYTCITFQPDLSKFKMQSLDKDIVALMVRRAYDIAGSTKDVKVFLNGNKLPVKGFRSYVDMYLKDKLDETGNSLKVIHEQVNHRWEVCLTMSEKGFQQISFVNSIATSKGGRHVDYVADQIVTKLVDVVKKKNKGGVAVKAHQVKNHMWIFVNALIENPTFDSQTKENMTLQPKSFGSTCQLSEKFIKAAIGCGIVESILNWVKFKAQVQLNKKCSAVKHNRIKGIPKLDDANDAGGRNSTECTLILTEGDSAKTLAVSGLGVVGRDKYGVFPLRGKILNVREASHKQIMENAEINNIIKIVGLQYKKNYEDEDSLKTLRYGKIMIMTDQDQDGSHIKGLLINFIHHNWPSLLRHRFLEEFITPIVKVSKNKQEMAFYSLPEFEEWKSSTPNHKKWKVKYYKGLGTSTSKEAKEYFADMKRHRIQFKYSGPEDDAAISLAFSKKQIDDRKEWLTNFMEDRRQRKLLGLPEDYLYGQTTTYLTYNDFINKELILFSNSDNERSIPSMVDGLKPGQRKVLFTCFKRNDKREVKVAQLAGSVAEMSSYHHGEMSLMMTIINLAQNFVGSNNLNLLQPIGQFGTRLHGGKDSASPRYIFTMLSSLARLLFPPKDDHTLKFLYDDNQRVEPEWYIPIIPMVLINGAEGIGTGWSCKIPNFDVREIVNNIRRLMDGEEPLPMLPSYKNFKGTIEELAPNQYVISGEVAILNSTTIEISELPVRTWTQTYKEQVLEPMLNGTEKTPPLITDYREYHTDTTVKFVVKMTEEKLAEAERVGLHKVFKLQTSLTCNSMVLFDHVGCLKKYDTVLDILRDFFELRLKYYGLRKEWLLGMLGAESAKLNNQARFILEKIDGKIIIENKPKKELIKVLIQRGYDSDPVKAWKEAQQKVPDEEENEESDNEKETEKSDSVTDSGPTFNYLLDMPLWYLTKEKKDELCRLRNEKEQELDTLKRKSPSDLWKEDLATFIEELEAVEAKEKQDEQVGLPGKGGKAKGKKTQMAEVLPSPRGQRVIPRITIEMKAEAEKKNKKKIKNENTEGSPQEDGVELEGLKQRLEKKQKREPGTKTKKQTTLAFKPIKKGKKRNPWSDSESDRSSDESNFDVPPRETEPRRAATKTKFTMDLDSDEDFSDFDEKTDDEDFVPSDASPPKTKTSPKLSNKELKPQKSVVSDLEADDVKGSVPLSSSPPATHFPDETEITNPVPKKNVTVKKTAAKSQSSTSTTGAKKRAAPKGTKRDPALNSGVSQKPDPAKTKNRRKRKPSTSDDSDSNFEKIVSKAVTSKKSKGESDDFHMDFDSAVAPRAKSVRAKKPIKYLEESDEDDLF
Put plainly: Topoisomerase II inhibition assay. It counts as biochemical. Conditions: average of three independent replicates, five concentrations. The protocol:
as §2

In data set [12] the test system is Bcl-2. The data set is described as follows: RT-PCR gene expression, Bcl-2. It counts as cell-based. Conditions: HepG2 cells, IC50, 48 h; normalized to β-actin; untreated = 1. As to the method:
as §1

The subject of data set [13] is HepG2 cells. Put plainly: Annexin V/PI staining flow cytometry (apoptosis). It counts as cell-based. The settings on record: IC50 concentration, 48 h. The protocol: After incubation overnight, 6-well culture plates were populated with HepG2 cells (3–5 10^5 cells/well). […] Cells and medium supernatants were then collected and washed in ice-cold PBS. The next step was suspending the cells in 100 µL of annexin binding buffer solution "25 mM CaCl2, 1.4 M NaCl, and 0.1 M Hepes/NaOH, pH 7.4” and incubation with “Annexin V-FITC solution (1:100) and propidium iodide (PI)” at a concentration equals 10 µg/mL in the dark for 30 min. The Cytoflex FACS system was then used to acquire the stained cells. cytExpert was used for the statistical analysis.

A short description of data set [14]: MTT cytotoxicity assay, MCF-7. It counts as cell-based. The settings on record: human, MCF-7 breast cells, read-out: Cytotoxic IC50 MCF-7.
Method: as §3
A short description of data set [15]: MTT cytotoxicity assay, HepG2. It counts as cell-based. Conditions: human, HepG2 liver cells, read-out: Cytotoxic IC50 HepG2.
Method: as §3
The nature of data set [16]: MTT cytotoxicity assay, A549. It counts as cell-based. The settings on record: human, A549 lung cells, read-out: Cytotoxic IC50 A549.
Method: as §3

`O=C1NC(=S)S/C1=C\c1ccc(Cl)cc1Cl` [Compound 3b, 5-((Z)-2,4-dichlorobenzylidene)-2-thioxo-4-thiazolidinone]: the IC50 (commonly the point on the concentration scale where inhibition reaches its midpoint) in data set [1] worked out at 17.9 µM; in [2], 7.8 µM; in data set [3], 9.7 µM.
For the compound `O=C1NC(=S)S/C1=C\c1ccc2c(c1)OCCO2` [Compound 3c, 5-((Z)-3,4-ethylenedioxybenzylidene)-2-thioxo-4-thiazolidinone], the melting point – broadly, the temperature, or range, at which the solid turns liquid – lay within 208 to 210 °C. Besides, in data set [1], the IC50 amounted to 7.1 µM. For the same compound, the IC50 in [2] came to 11.7 µM. Moreover, the 50% inhibitory concentration (IC50) in data set [3] was 13.7 µM.
`COc1ccc(/C=C2\SC(=S)NC2=O)cc1` [Compound 3d, 5-((Z)-4-methoxybenzylidene)-2-thioxo-4-thiazolidinone]: the IC50 in data set [1] came out at 15.1 µM; in data set [2] it was 18.1 µM; in [3] it was 7.8 µM.
`COc1cccc(/C=C2\SC(=S)NC2=O)c1O` [Compound 3e] came in with a melting point of 199 to 201 °C. The IC50 in data set [1] is 3.1 µM. Also, in [2], the IC50 stood at 16.3 µM. Moreover, the IC50 in [3] came out at 7.7 µM.
As to `O=C1NC(=S)S/C1=C\c1ccc2c(c1)OCO2` [Compound 3f, 5-((Z)-3,4-methylenedioxybenzylidene)-2-thioxo-4-thiazolidinone], the values for the IC50 in data set [1], in data set [2] and in data set [3] were 12.8 µM, 8.9 µM and 21.1 µM, respectively.
With `CC(=O)OC[C@H]1O[C@@H](N2C(=O)CSC2=S)[C@H](OC(C)=O)[C@@H](OC(C)=O)[C@@H]1OC(C)=O` [Compound 6, 3-(2',3',4',6'-Tetra-O-acetyl-β-D-glucopyranosyl)-2-thioxo-4-thiazolidinone], in data set [4], the “Fold Change = 2^-ΔΔCT P53” value is 6.16 fold and 6.16 ± 0.69 fold. The “Fold Change = 2^-ΔΔCT Casp-9” value in data set [5] is 6.14 fold and 6.14 ± 0.19 fold. In data set [6], the “Fold Change = 2^-ΔΔCT Casp-3” value is 8.3 fold and 8.3 ± 0.37 fold. Also, the “Cell population at S-phase” value in data set [7] was 49.6%. Further, the “Fold Change = 2^-ΔΔCT Bax” value in data set [8] is 5.7 fold and 5.7 ± 0.26 fold. The IC50 in [9] was determined as 19.6 µM; in data set [1], 11.7 µM; in data set [11], 6.9 µM; in data set [2] it was 0.21 µM; in data set [3] it was 1.7 µM. Moreover, in [10], the “Fold Change = 2^-ΔΔCT Casp-8” value was 3.29 fold and 3.29 ± 0.5 fold. Moreover, in [12], the “Fold Change = 2^-ΔΔCT Bcl-2” value was 0.36 fold and 0.36 ± 0.01 fold. Besides, the “Activation of apoptotic cell death versus untreated control” value in data set [13] is 80.7 fold. Moreover, the “Early apoptosis (AV+/PI-)” value in [13] turned out to be 23.07%. Besides, the “Late apoptosis (AV+/PI+)” value in data set [13] came to 11.66%. In addition, in [13] (untreated control 0.43%), the Total apoptosis is recorded as 34.73%.
Regarding `CC(=O)OC[C@H]1O[C@@H](SC2=NC(=O)CS2)[C@H](OC(C)=O)[C@@H](OC(C)=O)[C@@H]1OC(C)=O` [Compound 7], the IC50 was 29.6 µM in data set [9] and 9.1 µM in data set [11]. Further, the values for the IC50 at 48 h in data set [14], in data set [15] and in data set [16] were 12.4 µM, 0.76 µM and 0.31 µM, respectively.
As for `O=C1CSC(=S)N1CN1CCOCC1` [Compound 10, 3-morpholinomethyl-2-thioxo-4-thiazolidinone], the IC50 in data set [3] was 36.4 µM.
In turn, `CSC1NC(=O)CS1` (stereo not shown) [Compound 11, 2-methylmercapto-4-thiazolidinone] had a melting point of 72 to 74 °C.
`CC(=O)OCC1OC(SC2=NC(=O)C(=Cc3ccccc3)S2)C(OC(C)=O)C(OC(C)=O)C1OC(C)=O` [Compound 13a, 5-((Z)-benzylidene)-2–(2',3',4',6'-tetra-O-acetyl-β-D-glucopyranosyl)-2-thioxo-4-thiazolidinone] had a melting point of 166 to 168 °C. The compound also displayed an IC50 in data set [9] of 22.6 µM. Moreover, in [1], the IC50 is 3.1 µM. This compound displayed an IC50 in data set [11] of 8.3 µM. In addition, in data set [2], the IC50 came out at 17.2 µM. Further, the IC50 in [3] worked out at 6.1 µM.
With `CC(=O)OCC1OC(SC2=NC(=O)C(=Cc3ccc(Cl)cc3Cl)S2)C(OC(C)=O)C(OC(C)=O)C1OC(C)=O` [Compound 13b, 5-((Z)-2,4-dichlorobenzylidene)-2–(2',3',4',6'-tetra-O-acetyl-β-D-glucopyranosyl)-2-thioxo-4-thiazolidinone], the melting point lay within 167 to 169 °C. Also, in data set [1], the IC50 stood at 13.1 µM. For the same compound, the IC50 in data set [2] was found to be 7.2 µM. In [3], the IC50 amounted to 10.1 µM.
`CC(=O)OC[C@H]1O[C@@H](SC2=NC(=O)/C(=C/c3ccc4c(c3)OCCO4)S2)[C@H](OC(C)=O)[C@@H](OC(C)=O)[C@@H]1OC(C)=O` [Compound 13c, 5-((Z)-2,4-ethylenedioxybenzylidene)-2–(2',3',4',6'-tetra-O-acetyl-β-D-glucopyranosyl)-2-thioxo-4-thiazolidinone]: the IC50 in data set [2] came out at 21.2 µM; in [3], 4.1 µM.
Turning to `O=C1NC(=O)/C(=C/c2ccc(Cl)cc2Cl)S1` [Compound 14, 5-((Z)-2,4-dichlorobenzylidene)-2,4-thiazolidindione], the IC50 in [1] was found to be 42.2 µM; in [2], 37.3 µM; in [3], 31.6 µM.
Take `COc1cccc2c1C(=O)c1c(O)c3c(c(O)c1C2=O)C[C@@](O)(C(=O)CO)C[C@@H]3O[C@H]1C[C@H](N)[C@H](O)[C@H](C)O1` [Doxorubicin, reference compound]: the IC50 in data set [9] worked out at 31.3 µM; in data set [1], 7.67 µM; in data set [3], 6.62 µM.
